Test results reported in ChEMBL document CHEMBL1133220, “Potent new leucine aminopeptidase inhibitor of novel structure synthesised by a modified Wadsworth-Emmons (Horner) Wittig procedure” (Bioorg Med Chem Lett, 2000).

Molecular target: Cytosol aminopeptidase (Homo sapiens, UniProt P28838)
Assay: Inhibitory activity against leucine aminopeptidase

Sequence of Cytosol aminopeptidase (P28838 whole entry): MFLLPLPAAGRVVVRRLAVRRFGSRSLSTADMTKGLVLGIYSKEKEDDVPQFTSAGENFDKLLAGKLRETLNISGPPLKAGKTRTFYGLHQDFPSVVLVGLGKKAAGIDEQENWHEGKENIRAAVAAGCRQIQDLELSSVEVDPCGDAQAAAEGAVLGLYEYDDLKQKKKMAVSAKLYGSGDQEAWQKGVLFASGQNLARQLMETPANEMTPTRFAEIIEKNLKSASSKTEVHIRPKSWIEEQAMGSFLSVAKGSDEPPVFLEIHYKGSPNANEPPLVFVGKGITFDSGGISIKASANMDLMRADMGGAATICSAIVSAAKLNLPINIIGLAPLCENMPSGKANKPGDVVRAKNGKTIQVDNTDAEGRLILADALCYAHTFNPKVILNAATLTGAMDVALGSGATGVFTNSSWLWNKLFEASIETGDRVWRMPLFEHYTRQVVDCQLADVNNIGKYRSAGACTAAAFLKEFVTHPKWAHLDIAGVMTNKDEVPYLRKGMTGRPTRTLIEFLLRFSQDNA

Structure (SMILES): COC(=O)/C=C\C(=O)[C@@H](N)CC(C)C
- Ki: 76 nM
